Results: PubChem BioAssay (NCI)
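Cultured in 96-well plates, cells were exposed to test compound for 48 hours across five concentrations. Definition used: TGI = concentration required for complete inhibition of growth.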

Experiments:
Experiment in all cases: NCI tumour cell line growth inhibition, 48 h
U251 CNS = system: U251 CNS
EKVX NSCLC = system: EKVX NSCLC
MDA-MB-435 = system: MDA-MB-435
UACC-62 melanoma = system: UACC-62 melanoma
BT-549 breast = system: BT-549 breast
NCI/ADR-RES ovarian = system: NCI/ADR-RES ovarian
OVCAR-4 ovarian = system: OVCAR-4 ovarian
MDA-MB-231 breast = system: MDA-MB-231 breast
MDA-N = system: MDA-N
A498 renal = system: A498 renal
HL-60(TB) leukemia = system: HL-60(TB) leukemia
SNB-19 CNS = system: SNB-19 CNS
HOP-92 NSCLC = system: HOP-92 NSCLC
CCRF-CEM leukemia = system: CCRF-CEM leukemia
HS 578T breast = system: HS 578T breast
DU-145 prostate = system: DU-145 prostate
OVCAR-3 ovarian = system: OVCAR-3 ovarian
NCI-H460 lung = system: NCI-H460 lung
SK-OV-3 ovarian = system: SK-OV-3 ovarian
UO-31 renal = system: UO-31 renal
MCF7 breast = system: MCF7 breast
HT29 colon = system: HT29 colon
OVCAR-5 ovarian = system: OVCAR-5 ovarian
OVCAR-8 ovarian = system: OVCAR-8 ovarian
NCI-H226 lung = system: NCI-H226 lung
LOX IMVI melanoma = system: LOX IMVI melanoma
786-0 renal = system: 786-0 renal
HCT-116 colon = system: HCT-116 colon
A549 NSCLC = system: A549 NSCLC
SF-268 CNS = system: SF-268 CNS
SF-539 CNS = system: SF-539 CNS
SK-MEL-28 melanoma = system: SK-MEL-28 melanoma
RPMI-8226 leukemia = system: RPMI-8226 leukemia
NCI-H23 lung = system: NCI-H23 lung
SK-MEL-2 melanoma = system: SK-MEL-2 melanoma
RXF 393 renal = system: RXF 393 renal
T-47D breast = system: T-47D breast
SR leukemia = system: SR leukemia
SW-620 colon = system: SW-620 colon
COLO 205 colon = system: COLO 205 colon
K-562 leukemia = system: K-562 leukemia
ACHN renal = system: ACHN renal
TK-10 renal = system: TK-10 renal
KM12 colon = system: KM12 colon
PC-3 prostate = system: PC-3 prostate
CAKI-1 renal = system: CAKI-1 renal
M14 melanoma = system: M14 melanoma
SNB-75 CNS = system: SNB-75 CNS
SK-MEL-5 melanoma = system: SK-MEL-5 melanoma
IGROV1 ovarian = system: IGROV1 ovarian
MALME-3M melanoma = system: MALME-3M melanoma
HOP-62 NSCLC = system: HOP-62 NSCLC
UACC-257 melanoma = system: UACC-257 melanoma
SN12C renal = system: SN12C renal
HCT-15 colon = system: HCT-15 colon
MOLT-4 leukemia = system: MOLT-4 leukemia
SF-295 CNS = system: SF-295 CNS
NCI-H522 lung = system: NCI-H522 lung
HCC-2998 colon = system: HCC-2998 colon
DMS 273 small cell lung = system: DMS 273 small cell lung
KM20L2 colon = system: KM20L2 colon
DLD-1 colon = system: DLD-1 colon
HOP-18 NSCLC = system: HOP-18 NSCLC
M19-MEL melanoma = system: M19-MEL melanoma

`O=C1C2CCN(CC2)C1(CO)CO` showed a TGI (U251 CNS) greater than 75.5 µM, a TGI (EKVX NSCLC) of 99.4 µM and a TGI (MDA-MB-435) greater than 100 µM. For the same compound, the TGI (UACC-62 melanoma) was 42.1 µM, the TGI (BT-549 breast) was 41.7 µM and the TGI (NCI/ADR-RES ovarian) was 60 µM. The TGI (OVCAR-4 ovarian) was 43 µM, the TGI (MDA-MB-231 breast) was 44 µM and the TGI (MDA-N) was greater than 100 µM. The TGI (A498 renal) was greater than 79.7 µM, the TGI (HL-60(TB) leukemia) was greater than 78.6 µM and the TGI (SNB-19 CNS) was greater than 100 µM. For the same compound, the TGI (HOP-92 NSCLC) was 46.6 µM, the TGI (CCRF-CEM leukemia) was 32.2 µM and the TGI (HS 578T breast) was 70.6 µM. It also gave a TGI (DU-145 prostate) of 31.6 µM, a TGI (OVCAR-3 ovarian) of 31 µM and a TGI (NCI-H460 lung) greater than 100 µM. The TGI (SK-OV-3 ovarian) was greater than 100 µM, the TGI (UO-31 renal) was 34.1 µM and the TGI (MCF7 breast) was 66.4 µM. The TGI (HT29 colon) was 73.7 µM, the TGI (OVCAR-5 ovarian) was 45.9 µM and the TGI (OVCAR-8 ovarian) was 74.7 µM. For the same compound, the TGI (NCI-H226 lung) was 46.6 µM, the TGI (LOX IMVI melanoma) was 36 µM and the TGI (786-0 renal) was 44 µM. For the same compound, the TGI (HCT-116 colon) was 30.9 µM, the TGI (A549 NSCLC) was greater than 100 µM and the TGI (SF-268 CNS) was greater than 100 µM. It also gave a TGI (SF-539 CNS) greater than 78.1 µM, a TGI (SK-MEL-28 melanoma) of 44.5 µM and a TGI (RPMI-8226 leukemia) of 43.4 µM. For the same compound, the TGI (NCI-H23 lung) was 61.9 µM, the TGI (SK-MEL-2 melanoma) was greater than 100 µM and the TGI (RXF 393 renal) was 52 µM. It also gave a TGI (T-47D breast) of 45.4 µM, a TGI (SR leukemia) of 55.3 µM and a TGI (SW-620 colon) of 36.3 µM. It also gave a TGI (COLO 205 colon) of 43 µM, a TGI (K-562 leukemia) of 54.5 µM and a TGI (ACHN renal) of 32.3 µM. The TGI (TK-10 renal) was 32.2 µM, the TGI (KM12 colon) was greater than 93.2 µM and the TGI (PC-3 prostate) was greater than 100 µM. It also gave a TGI (CAKI-1 renal) of 40 µM, a TGI (M14 melanoma) of 38.8 µM and a TGI (SNB-75 CNS) greater than 81.8 µM. It also gave a TGI (SK-MEL-5 melanoma) greater than 73.3 µM, a TGI (IGROV1 ovarian) greater than 100 µM and a TGI (MALME-3M melanoma) of 36.6 µM. It also gave a TGI (HOP-62 NSCLC) greater than 100 µM, a TGI (UACC-257 melanoma) of 37.7 µM and a TGI (SN12C renal) of 33 µM. The TGI (HCT-15 colon) was 34.6 µM, the TGI (MOLT-4 leukemia) was 23.6 µM and the TGI (SF-295 CNS) was greater than 100 µM. For the same compound, the TGI (NCI-H522 lung) was 33.2 µM.

Compound `CN(Cc1cc(Br)cc(Br)c1O)Cc1c(O)ccc2ccccc12` has a TGI (U251 CNS) of 41 µM, a TGI (EKVX NSCLC) of 35.8 µM and a TGI (MDA-MB-435) of 40.3 µM. For the same compound, the TGI (UACC-62 melanoma) was 41.3 µM, the TGI (BT-549 breast) was 49 µM and the TGI (NCI/ADR-RES ovarian) was greater than 100 µM. The TGI (OVCAR-4 ovarian) was 34.9 µM, the TGI (MDA-MB-231 breast) was 35.6 µM and the TGI (MDA-N) was 39.9 µM. The TGI (A498 renal) was 36.2 µM, the TGI (HL-60(TB) leukemia) was 46.1 µM and the TGI (SNB-19 CNS) was 38.9 µM. For the same compound, the TGI (HOP-92 NSCLC) was 39.4 µM, the TGI (CCRF-CEM leukemia) was 60.6 µM and the TGI (HS 578T breast) was 77.2 µM. The TGI (DU-145 prostate) was 40.6 µM, the TGI (OVCAR-3 ovarian) was 31.8 µM and the TGI (NCI-H460 lung) was 54.2 µM. The TGI (SK-OV-3 ovarian) was 52 µM, the TGI (UO-31 renal) was 30.9 µM and the TGI (MCF7 breast) was 58.3 µM. The TGI (HT29 colon) was 37.8 µM, the TGI (OVCAR-5 ovarian) was 37.1 µM and the TGI (HCC-2998 colon) was 37.9 µM. It also gave a TGI (OVCAR-8 ovarian) of 60 µM, a TGI (NCI-H226 lung) of 40.5 µM and a TGI (LOX IMVI melanoma) of 42.5 µM. It also gave a TGI (786-0 renal) of 36.2 µM, a TGI (HCT-116 colon) of 40.6 µM and a TGI (A549 NSCLC) of 40.9 µM. It also gave a TGI (SF-268 CNS) of 74.5 µM, a TGI (SF-539 CNS) of 35.6 µM and a TGI (SK-MEL-28 melanoma) of 44.2 µM. It also gave a TGI (RPMI-8226 leukemia) greater than 100 µM, a TGI (NCI-H23 lung) of 50.6 µM and a TGI (SK-MEL-2 melanoma) of 35.6 µM. It also gave a TGI (RXF 393 renal) of 38.8 µM, a TGI (T-47D breast) of 43.8 µM and a TGI (SR leukemia) of 55.6 µM. The TGI (SW-620 colon) was greater than 100 µM, the TGI (COLO 205 colon) was 36.7 µM and the TGI (K-562 leukemia) was 51.9 µM. The TGI (ACHN renal) was 41.7 µM, the TGI (TK-10 renal) was 36.4 µM and the TGI (KM12 colon) was 33.5 µM. It also gave a TGI (PC-3 prostate) of 33.5 µM, a TGI (CAKI-1 renal) of 31.5 µM and a TGI (M14 melanoma) of 41.5 µM. The TGI (SNB-75 CNS) was 39.1 µM, the TGI (SK-MEL-5 melanoma) was 33.1 µM and the TGI (IGROV1 ovarian) was 44.6 µM. The TGI (MALME-3M melanoma) was 42.9 µM, the TGI (HOP-62 NSCLC) was 38.9 µM and the TGI (UACC-257 melanoma) was 37.5 µM. The TGI (SN12C renal) was 32 µM, the TGI (HCT-15 colon) was greater than 100 µM and the TGI (MOLT-4 leukemia) was 30 µM. The TGI (SF-295 CNS) was 47.5 µM and the TGI (NCI-H522 lung) was 74.5 µM.

Compound `COc1ccc(/C(=C/n2ccnc2)C(O)c2ccc(OC)c(OC)c2)cc1OC` (stereo unspecified) has a TGI (U251 CNS) greater than 100 µM, a TGI (OVCAR-4 ovarian) greater than 100 µM and a TGI (DMS 273 small cell lung) greater than 100 µM. It also gave a TGI (A498 renal) greater than 100 µM, a TGI (KM20L2 colon) greater than 100 µM and a TGI (HL-60(TB) leukemia) greater than 100 µM. For the same compound, the TGI (SNB-19 CNS) was greater than 100 µM, the TGI (HOP-92 NSCLC) was greater than 100 µM and the TGI (CCRF-CEM leukemia) was greater than 100 µM. It also gave a TGI (OVCAR-3 ovarian) greater than 100 µM, a TGI (NCI-H460 lung) greater than 100 µM and a TGI (SK-OV-3 ovarian) greater than 100 µM. The TGI (UO-31 renal) was greater than 100 µM, the TGI (HT29 colon) was greater than 100 µM and the TGI (OVCAR-5 ovarian) was greater than 100 µM. For the same compound, the TGI (OVCAR-8 ovarian) was greater than 100 µM, the TGI (NCI-H226 lung) was greater than 100 µM and the TGI (LOX IMVI melanoma) was greater than 100 µM. It also gave a TGI (786-0 renal) greater than 100 µM, a TGI (DLD-1 colon) greater than 100 µM and a TGI (SF-268 CNS) greater than 100 µM. It also gave a TGI (SF-539 CNS) greater than 100 µM, a TGI (SK-MEL-28 melanoma) greater than 100 µM and a TGI (RPMI-8226 leukemia) greater than 100 µM. The TGI (NCI-H23 lung) was greater than 100 µM, the TGI (SK-MEL-2 melanoma) was greater than 100 µM and the TGI (RXF 393 renal) was greater than 100 µM. It also gave a TGI (SR leukemia) greater than 100 µM, a TGI (SW-620 colon) greater than 100 µM and a TGI (COLO 205 colon) greater than 100 µM. The TGI (K-562 leukemia) was greater than 100 µM, the TGI (TK-10 renal) was greater than 100 µM and the TGI (KM12 colon) was greater than 100 µM. It also gave a TGI (M14 melanoma) greater than 100 µM, a TGI (SNB-75 CNS) greater than 100 µM and a TGI (IGROV1 ovarian) greater than 100 µM. The TGI (HOP-62 NSCLC) was greater than 100 µM, the TGI (HOP-18 NSCLC) was greater than 100 µM and the TGI (UACC-257 melanoma) was greater than 100 µM. The TGI (SN12C renal) was greater than 100 µM, the TGI (HCT-15 colon) was greater than 100 µM and the TGI (MOLT-4 leukemia) was greater than 100 µM. For the same compound, the TGI (M19-MEL melanoma) was greater than 100 µM and the TGI (SF-295 CNS) was greater than 100 µM.
